# Measured values taken from patent US10610529B2, “Trabectedin-inclusive injectable pharmaceutical composition for gastrointestinal external use and a method for manufacturing the same” (priority 2016, dated 2020).
# Assays:
# [1] = cited from earlier work
# [2] = cited from earlier work; remark: listed apart in the source
# [3] = Measurement of related substances and placement stability of lyophilized formulation (accelerated and long-term conditions); assay type: physicochemical; conditions: API, no storage item given
# Protocol: The above intermediate solution was lyophilized to prepare a lyophilized trabectedin formulation. The appearance, water content, reconstitution and pH were investigated. The change of related substances after lyophilization and the placement stability under accelerated conditions (25° C. 60% RH) and long-term conditions (2-8° C.) were measured.
# The above lyophilized formulations were stored under accelerated conditions (25° C. 60% RH), and the related substances and water content were measured at different time points.
# [4] = High-temperature stability of lyophilized products comprising different ratios of glucose/dextran 40; assay type: physicochemical; conditions: API, no storage time given
structure (smiles),measurement,setting,value
"COc1cc2c(cc1O)CCN[C@]21CS[C@@H]2c3c(OC(C)=O)c(C)c4c(c3[C@H](COC1=O)N1[C@@H]2[C@H]2c3c(cc(C)c(OC)c3O)C[C@@H]([C@@H]1O)N2C)OCO4 [API, Trabectedin]",solubility in pure water,[1],limited
same,storage time,[2]; refrigerated at 5° C.,≤ 1 month
same,thermal stability,[2]; room temperature (25° C.),rapidly degrades
same,ET-745 (%),[3],0.25%
same,ET-759B (%),[3],0.31%
same,Total impurities (%),[3],2.56%
same,ET-745 (%),[4],0.25%
same,ET-759B (%),[4],0.31%
same,Total impurities (%),[4],2.56%
